In patent US8614237B2, “Benzofuran-4,5-diones as selective peptide deformylase inhibitors” (Sloan-Kettering Institute for Cancer Research, priority 2009, dated 2013):

Tests used:
HsPDF [1] = biological target: T1, HsPDF (Homo sapiens, UniProt Q9HBH1); test: FP binding assay (fluorescence polarization, probe SKI 267088), specificity profiling and dose response; details: for activity toward HsPDF, FP assay: specificity profiling / dose response
T1 construct: A 63 amino acid N-terminally truncated human peptide deformylase (HsPDF); 6His (C); made in house; host or cells: E. coli BL21 (DE3), co-transformed with the GroES/EL chaperone plasmid
T1 sequence (Q9HBH1 64-243 limits assumed): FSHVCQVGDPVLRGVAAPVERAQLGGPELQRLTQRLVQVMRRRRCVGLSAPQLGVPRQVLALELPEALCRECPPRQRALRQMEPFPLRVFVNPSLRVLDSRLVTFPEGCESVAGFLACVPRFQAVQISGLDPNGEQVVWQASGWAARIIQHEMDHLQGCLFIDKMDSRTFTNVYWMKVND
Method: Specificity profiling was performed on the newly synthesized benzofuran-4,5-diones using the aforementioned FP profiling method (Antczak et al., J. Biomol. Screen 2008, 13, 285-294).
Compounds or high/low controls were added to the wells at a volume of 2 μL. […] High controls consisted of 1% DMSO (v/v). MBP-HsPDF or the metalloprotease to be tested was diluted in the assay buffer (25 mM Hepes, 50 mM NaCl, 0.005% Tween 20, pH 7.5), and 10 μL where added to the 384-well microplates (Low Volume Round Bottom NBS Treated, Corning) to achieve a final concentration of 1 μM. After addition of MBP-HsPDF to the tested compounds, the 384-well microplates were preincubated for one hour at room temperature. Then 8 μL of the probe SKI 267088 in solution in assay buffer was added to the wells at a final concentration of 5 nM. After one hour incubation at room temperature, the fluorescence polarization was read using the Amersham LEADseeker™ Multimodality Imaging System equipped with Cy3 excitation/emission filters and Cy3 FP epi-mirror. Quench tests were performed in duplicate by measuring the fluorescence polarization of wells containing the probe, pre- and post-addition of the compounds at 100 μM.
In each assay, the signal inhibition induced by the compounds was expressed as a percentage compared to high and low controls located on the same plate, as defined as % Inhibition=(high control average−read value)/(high control average−low control average)×100. The dose response was assessed in duplicate and using 12 point doubling dilutions with 100 μM compound concentration as the upper limit. The dose response curve for each set of data was fitted separately, and the two IC50 values obtained were averaged.

MMP-1 = MMP-1 %I 100uM
Method: (§1) Table printed on a drawing sheet, Figure 5
Head of the field: MMP-1 %I 100uM
(§2) Footnotes: -26 124 % inhibition
(§3) The patent's description of the figure: FIG. 5.
Where the first naming reader finds the target: head: MMP-1 %I 100uM

APN = APN %I 100uM
Method: as §1
Head of the field: APN %I 100uM
as §2, §3
Where the first naming reader finds the target: head: APN %I 100uM

EcPDF [2] = test system: EcPDF
Method: Head of the field: EcPDF %I 100uM
(§4) Specificity profiling of the derivatives of benzofuran-4,5-diones.
Where the first naming reader finds the target: head: EcPDF %I 100uM

EcPDF [3] = test system: EcPDF; remark: listed apart in the source
Method: Head of the field: EcPDF %I 10uM
as §4
Where the first naming reader finds the target: head: EcPDF %I 10uM

HsPDF [4] = biological target: T1, HsPDF; test: FLUO functional assay (fluorescamine, substrate fMAHA); format: biochemical; details: 0.5 μM HsPDF, upper limit 10 μM compound
Method: High controls consisted of 1% DMSO (v/v). […] The deformylation reaction mixture was incubated for one hour at room temperature. A separate set of plates containing 3 μL of fluorescamine at 1 mg/mL in 100% DMSO was prepared for the labeling step. Then, 17 μL of the reaction mixture from the original set of plates was transferred to the plates containing the fluorescamine solution for the labeling step. The readout was performed on a Perkin Elmer VICTOR^3 V™ Multi label counter, using an excitation wavelength of 355 nm, and an emission wavelength of 460 nm. […] Compounds inducing a variation of fluorescence greater than 20% were flagged as optically active compounds.
High controls consisted of 1% DMSO (v/v). […] The deformylation reaction mixture was incubated for one hour at room temperature. A separate set of plates containing 3 μL of fluorescamine at 1 mg/mL in 100% DMSO was prepared for the labeling step. Then, 17 μL of the reaction mixture from the original set of plates was transferred to the plates containing the fluorescamine solution for the labeling step. The readout was performed on a Perkin Elmer VICTOR3 V™ Multi label counter, using an excitation wavelength of 355 nm, and an emission wavelength of 460 nm.

[5] = test system: panel of eight cancer cell lines; test: Cytotoxicity profiling of 26 second generation derivatives (Alamar Blue viability assay, nuclei count); format: cell-based, human
Method: Cytotoxicity profiling for the 26 newly synthesized benzofuran-4,5-diones derivatives was performed on a panel of eight cancer cell lines.
The cell lines HL-60 (human acute promyelocytic leukemia), Jurkat (human acute T cell leukemia), Molt3 (acute lymphoblastic leukemia), CWR22 (prostate carcinoma), K562 (human chronic myeloid leukemia lymphoblasts), and Y79 (human retinoblastoma) were obtained from the ATCC, and cultured following ATCC recommendations. The cell line HL-60/RV+ (a P-glycoprotein-overexpressing multi-drug resistant HL-60 variant selected by continuous exposure to vincristine) was described elsewhere (Weisburg J H, Roepe P D, Dzekunov S, Scheinberg D A: Intracellular pH and multidrug resistance regulate complement-mediated cytotoxicity of nucleated human cells. J Biol Chem 1999; 274:10877-10888). The cell line ALL-3 (acute lymphoblastic leukemia isolated from a patient treated at MSKCC and characterized as Philadelphia chromosome positive) was obtained from Dr. Mark Frattini (MSKCC). The viability assay we used in this study is based on the dye resazurin and commercially sold as Alamar Blue (O'Brien J, Wilson I, Orton T, Pognan F: Investigation of the Alamar Blue (resazurin) fluorescent dye for the assessment of mammalian cell cytotoxicity. Eur J Biochem 2000; 267:5421-5426). Cells were added in 45 μL medium to the pre-plated compounds in 5 μL of 1% DMSO (v/v). After 72 h incubation was added 5 μL Alamar Blue. […] Plates were then fixed and nuclei were stained using Hoechst for the nuclear count proliferation assay. Imaging for Hoechst staining of nuclei count were acquired with an IN Cell Analyzer 2000 epifluorescence automated microscope ([…]) (GE Healthcare, Piscataway, N.J.) equipped with a 4× objective, using D360/40 excitation filter (360 nm excitation peak; +/−40 nm bandpass), HQ535/50 emission filter (535 nm emission peak; +/−50 nm bandpass) and Q505LP dichroic, and exposing fields for 200 milliseconds in the blue channel. Image analysis was conducted with the IN Cell Developer 1.7 software (GE Healthcare) using custom-developed analysis modules. The analysis module used for nuclei count performs object segmentation in the blue channel to automatically define and count the number of nuclei. Data is reported as the sum of imaged nuclei.
In addition of the Alamar Blue viability assay readout, for the adherent cell lines of this panel (CWR22 and Meso47) we performed a direct nuclei count to assess the effect of the novel derivatives on cell proliferation.

[6] = In vivo toxicity of benzofuran-4,5-diones; details: i.p. twice a day for four days, 1 to 10 mg/kg, monitored 14 days
Method: Lead compound SKC-BF-13 and another newly synthesized derivative SKC-BF-02 were selected in order to assess the in vivo toxicity of benzofuran-4,5-diones. Three mice per group were treated with BF-13 at three doses (i.e., 1, 5 and 10 mg/kg) or with SKC-BF-02 at two doses (i.e., 1 and 10 mg/kg). A control group of two mice were treated with the vehicle (i.e., 20% DMSO v/v). Mice were treated twice a day for four days via intraperitoneal administration. Their weight was monitored along with any other signs of toxicity for fourteen days.
ICR/SCID male mice about three weeks old were used in this study. Three mice per group were treated with BF-13 at three doses (i.e., 1, 5 and 10 mg/kg) or with SKC-BF-02 at two doses (i.e., 1 and 10 mg/kg). A control group of two mice were treated with the vehicle (20% DMSO v/v). Mice were treated twice a day for four days via intraperitoneal administration. Their weight was monitored as well as any other sign of toxicity for 14 days.
SKI 396848 (SKC-BF-12) and SKI 396840 (SKC-BF-02) were synthesized during the first round of exploratory chemistry to assess the in vivo toxicity of benzofuran-4,5-diones (as shown in FIG. 8). Three ICR/SCID male mice per group were treated with SKI 396848 at three doses: 1, 5 and 10 mg/kg or with SKI 396840 at two doses: 1 and 10 mg/kg. A control group of two mice was treated with the vehicle (20% DMSO v/v). Mice were treated twice a day for four days i.p. Their weight was monitored as well as any other sign of toxicity for 14 days. One treated mouse per group was evaluated by a pathologist.

[7] = test system: panel of cancer cell lines; test: Cytotoxicity assay (Alamar Blue), primary hits and first generation derivatives; format: cell-based, human; details: first generation, panel of nine cancer cell lines
Method: Cytotoxicity assays were performed in order to profile the thirty-three newly synthesized benzofuran-4,5-dione derivatives on a panel of nine cancer cell lines. A heat map summarizes the calculated IC50s ([…]). Twelve out of thirteen derivatives potent toward HsPDF were also cytotoxic toward several cancer cell lines (FIG. 7).
The cell lines HL-60 (human acute promyelocytic leukemia), Jurkat (human acute T cell leukemia), Molt3 (acute lymphoblastic leukemia), CWR22 (prostate carcinoma), HEK293 (human embryonic kidney), K562 (human chronic myeloid leukemia lymphoblasts), Y79 (human retinoblastoma) were obtained from the ATCC, and cultured following ATCC recommendations. The cell line NCEB-1 (human non-hodgkin lymphoma) was obtained from Dr. O'Connor (Sloan-Kettering Institute). The cell line HL-60/RV+ (a P-glycoprotein-overexpressing multi-drug resistant HL-60 variant selected by continuous exposure to vincristine) was described elsewhere (Weisburg et al., J. Biol. Chem. 1999, 274, 10877-10888). The cell line ALL-3 (acute lymphoblastic leukemia isolated from a patient treated at MSKCC and characterized as Philadelphia chromosome positive) was obtained from Dr. Mark Frattini (MSKCC). The assay used for the cytotoxicity studies is based on the dye resazurin and commercially sold as Alamar Blue (O'Brien et al., Eur. J. Biochem. 2000, 267, 5421-5426). […]

COc1ccc(C(=O)c2coc3c2C(=O)C(=O)c2ccccc2-3)cc1 [SKC-NF-01, 3-(4-Methoxy-benzoyl)-naphtho[1,2-b]furan-4,5-dione]
activity toward HsPDF, FP assay (HsPDF [1]): inactive
MMP-1 %I 100uM (MMP-1): 27 %I
APN %I 100uM (APN): 22 %I
EcPDF %I 100uM (EcPDF [2]): 23 %I
EcPDF %I 10uM (EcPDF [3]): 30 %I

O=C(O)COc1ccc(C(=O)c2coc3c2C(=O)C(=O)C(Cl)=C3Cl)cc1 [SKI 417521, 2-(4-(6,7-dichloro-4,5-dioxo-4,5-dihydrobenzofuran-3-carbonyl)phenoxy)acetic acid]
IC50 (HsPDF [4]): 620 nM
activity against the cell lines of the panel, second generation [5]: not active toward most of the cell lines tested

O=C1C=Cc2occ(C(=O)c3ccccc3)c2C1=O [SKC-BF-01, 3-Benzoyl-benzofuran-4,5-dione]
IC50 (HsPDF [1]; dose response, 12 point doubling dilutions, upper limit 100 μM): 59000 nM
selectivity for HsPDF in a panel of metalloproteases (HsPDF [1]; panel HsPDF, EcPDF, APN and MMP-1): most selective HsPDF inhibitors
APN %I 100uM (APN): 5 %I
EcPDF %I 100uM (EcPDF [2]): 32 %I

COc1ccc(C(=O)c2coc3c2C(=O)C(=O)C=C3)cc1 [SKC-BF-02, 3-(4-Methoxy-benzoyl)-benzofuran-4,5-dione]
signs of toxicity in vivo (weight and other signs) [6]: none of the treatments induced any sign of toxicity
signs of toxicity in vivo (weight and other signs) ([6]; listed as SKI 396840): None of the treatments were found to induce any signs of toxicity

COc1ccc(C(=O)c2coc3c2C(=O)C(=O)C(Cl)=C3Cl)cc1OC [SKC-BF-10, 6,7-Dichloro-3-(3,4-dimethoxy-benzoyl)-benzofuran-4,5-dione]
activity toward HsPDF, FP assay (HsPDF [1]): potent HsPDF inhibitor
cytotoxicity toward cancer cell lines [7]: not very active toward any cancer cell line tested
MMP-1 %I 100uM (MMP-1): 46 %I
EcPDF %I 10uM (EcPDF [3]): 24 %I

O=C(O)COc1ccc(C(=O)c2coc3c2C(=O)C(=O)C(Br)=C3Br)cc1 [SKI 417520, 2-(4-(6,7-dibromo-4,5-dioxo-4,5-dihydrobenzofuran-3-carbonyl)phenoxy)acetic acid]
IC50 (HsPDF [4]): 680 nM
activity against the cell lines of the panel, second generation [5]: not active toward most of the cell lines tested

O=C1C(=O)c2c(C(=O)c3ccc(-n4ccnc4)cc3)coc2C(Br)=C1Br [SKI 417499, 3-(4-(1H-imidazol-1-yl)benzoyl)-6,7-dibromobenzofuran-4,5-dione]
IC50 (HsPDF [4]): 1800 nM

O=C1C(=O)c2c(C(=O)c3ccc(C(=O)O)cc3)coc2C(Cl)=C1Cl [SKI 417519, 4-(6,7-dichloro-4,5-dioxo-4,5-dihydrobenzofuran-3-carbonyl)benzoic acid]
IC50 (HsPDF [4]): 690 nM
activity against the cell lines of the panel, second generation [5]: not active toward most of the cell lines tested

O=C1C(=O)c2c(C(=O)c3ccc4c(c3)OCCO4)coc2C(Br)=C1Br [SKI 417504, 6,7-dibromo-3-(2,3-dihydrobenzo[b][1,4]dioxine-6-carbonyl)benzofuran-4,5-dione]
IC50 (HsPDF [4]): 2300 nM
